Drawing on ChEMBL document CHEMBL1128601, “Development of a novel series of trialkoxyaryl derivatives as specific and competitive antagonists of platelet activating factor” (J Med Chem, 1995), this text covers IC50 ratio and IC50 for 35 compounds.

Assay [1] deals with Platelet-activating factor receptor (Oryctolagus cuniculus). As to the kind of experiment: Competitive inhibition of PAF-induced platelet aggregation was measured as IC50 ratio is (1000 x the IC50 of the test compound divided by the IC50 of a standard).
The species named for assay [2] is Oryctolagus cuniculus. As to the kind of experiment: Activity against adenosine diphosphate (ADP) induced platelet aggregation.
The species named for assay [3] is Oryctolagus cuniculus. Nature of the assay: Competitive inhibition of PAF-induced platelet aggregation was measured as IC50 ratio = [1000 x the IC50 of the test compound divided by the IC50 of a standard (3)]. The format is functional.
For assay [4], the species on record is Oryctolagus cuniculus. As to the kind of experiment: Activity against U-46,619 induced platelet aggregation; no effect at 20 uM. Type of assay: functional.

In the case of `CCCCCCOc1c(OC)cc(/C=C/CCCC[N+](C)(C)C)cc1OC.[I-]`, in assay [1], the IC50 ratio is 133. In the assay filed under Oryctolagus cuniculus [2], the IC50 entry was “Not Active”.
For the compound `CCCCCCOc1c(OC)cc(C(=O)OCCCC[n+]2ccsc2)cc1OC`, in assay [1], the IC50 ratio came to 48.
Turning to `CCCCCCOc1c(OC)cc(CC(=O)OCCC[N+](C)(C)C)cc1OC`, in assay [1], the IC50 ratio stood at 820.
Still for that read-out and setting: the value for `CCCCCCOc1c(OC)cc(CCCCCC[N+](C)(C)C)cc1OC` was 65.
On to `CCCCCCOc1c(OC)cc(C(=O)OCCCC[N+](CC)(CC)CC)cc1OC.[I-]`, for which the IC50 ratio in assay [1] worked out at 115. Moreover, in the assay filed under Oryctolagus cuniculus [2], the IC50 entry is listed as “Not Active”.
As to `CCCCCCOc1ccc(C(=O)OCCCC[N+](C)(C)C)cc1`, the IC50 ratio in assay [1] came out at 1400.
`CCCCCCOc1c(OC)cc(C(=O)Oc2ccccc2CC[N+](C)(C)C)cc1OC`: the IC50 ratio in assay [1] came out at 507.
As for `CCCCCCOc1c(OC)cc(OC(=O)CCCC[N+](C)(C)C)cc1OC.[I-]`, the IC50 ratio in assay [1] is 833. Besides, the IC50 entry in the assay listed under Oryctolagus cuniculus [2] is “Not Active”.
For `CCCCCCCCOc1c(OC)cc(C(=O)OCCCC[N+](C)(C)C)cc1OC`, in assay [1], the IC50 ratio was determined as 103.
The same measure, in the same setting: for `COc1cc(C(=O)OCCCC[N+](C)(C)C)cc(OC)c1OCCC1CCCC1` the value was 203.
For the compound `CCCCCCOc1c(OC)cc(C(=O)OCCc2sc[n+](C)c2C)cc1OC.[I-]`, the IC50 ratio in assay [1] amounted to 114. For the same compound, in the assay listed under Oryctolagus cuniculus [2], the IC50 result was “Not Active”.
Turning to `CCCCCCCCCCCCCCCCOc1c(OC)cc(C(=O)OCCCC[N+](C)(C)C)cc1OC`, the IC50 ratio in assay [1] was 35.
`CCCCCCOc1c(OC)cc(C(=O)OCCCC[n+]2ccccc2)cc1OC.[I-]`: the IC50 ratio in assay [1] came out at 107. Also, the IC50 result in the assay filed under Oryctolagus cuniculus [2] is reported as “Not Active”.
The corresponding values for `CCCCCCCOc1c(OC)cc(C(=O)OCCCC[N+](C)(C)C)cc1OC.[I-]` are 199 and “Not Active”.
`CCCCCCOc1c(OC)cc(C(=O)OCCC[N+](C)(C)C)cc1OC.[I-]`: the IC50 ratio in assay [1] is 7000. In the assay listed under Oryctolagus cuniculus [2], the IC50 result is given as “Not Active”.
As for `CCCCCCOc1c(C)cc(C(=O)OCCCC[N+](C)(C)C)cc1C`, in assay [1], the IC50 ratio is 265.
Regarding `CCCCCCOc1c(OC)cc(C(=O)OCCCC[n+]2cccc3ccccc32)cc1OC.[Cl-]`, the IC50 ratio in assay [1] stood at 57.3. Also, the IC50 result in the assay listed under Oryctolagus cuniculus [2] is listed as “Not Active”.
On the same counts, the results for `CCCCCOc1c(OC)cc(C(=O)OCCCC[N+](C)(C)C)cc1OC.[I-]` are 540 and “Not Active”.
For `CCCCCCOc1c(OC)cc(C(=O)OCCCCCC[N+](C)(C)C)cc1OC`, in assay [1], the IC50 ratio amounted to 270.
For `CCCCCCOc1c(Cl)cc(C(=O)OCCCC[N+](C)(C)C)cc1OC`, the IC50 ratio in assay [1] was found to be 263.
Still for that read-out and setting: for `CCCCCCOc1c(OC)cc(C(=O)OCc2ccccc2C[N+](C)(C)C)cc1OC` the value was 144.
Turning to `CCCCCCOc1ccc(C(=O)OCCCC[N+](C)(C)C)cc1OC.[I-]`, in assay [1], the IC50 ratio came out at 1740. Further, in the assay listed under Oryctolagus cuniculus [2], the IC50 entry is “Not Active”.
The corresponding values for `COc1cc(C(=O)OCCCC[N+](C)(C)C)cc(OC)c1OCc1ccccc1.[I-]` are 533 and “Not Active”.
With `CCCCCCCCCCOc1c(OC)cc(C(=O)OCC[N+](C)(C)C)cc1OC`, the IC50 ratio in assay [1] turned out to be 153.
For the compound `CCCCCCOc1c(OC)cc(C(=O)OCCCCN(C)C)cc1OC`, the IC50 ratio in assay [1] was 1500. For the same compound, the IC50 result in the assay listed under Oryctolagus cuniculus [2] is given as “Not Active”.
`CCCCCCOc1c(OC)cc(C(=O)OCCc2scnc2C)cc1OC`: the IC50 ratio in assay [1] came to 116.
`CCCCCCOc1c(OC)cc(CCCCc2scnc2C)cc1OC`: the IC50 ratio in assay [1] is 14.7.
Regarding `CCCCOc1c(OC)cc(C(=O)OCC[N+](C)(C)C)cc1OC.[I-]`, the IC50 ratio in assay [1] came out at 3370. Further, the IC50 result in the assay listed under Oryctolagus cuniculus [2] is on record as “Not Active”.
For `CCCCCCOc1c(OC)cc(C(=O)Oc2cccc3ccc[n+](C)c23)cc1OC.[I-]`, the IC50 ratio in assay [1] is 11.7. Besides, the IC50 entry in the assay filed under Oryctolagus cuniculus [2] is on record as “Not Active”.
In the case of `CCCCCCOc1c(OC)cc(C=CCCCC[N+](C)(C)C)cc1OC.[I-]`, the IC50 ratio in assay [1] was found to be 200. Moreover, the IC50 result in the assay filed under Oryctolagus cuniculus [2] was “Not Active”.
Take `CCCCCCOc1c(OC)cc(C(=O)Oc2ccc3c(ccc[n+]3C)c2)cc1OC`: in assay [1], the IC50 ratio is 13.
As to `COc1cc(C(=O)OCC[N+](C)(C)C)cc(OC)c1OC.[I-]`, the IC50 ratio in the assay filed under Oryctolagus cuniculus [3] stood at 15000.
Regarding `COc1cc(C(=O)OCCCC[N+](C)(C)C)cc(OC)c1OCC1CCCCC1.[I-]`, the IC50 ratio in assay [1] stood at 443. For the same compound, in the assay filed under Oryctolagus cuniculus [4], the IC50 result is recorded as “Not Active”.
For the compound `CCCCCCOc1c(OC)cc(C(=O)OCC[N+](C)(C)C)cc1OC.[I-]`, the IC50 ratio in assay [1] turned out to be 1000. In the assay filed under Oryctolagus cuniculus [2], the IC50 entry was “Not Active”.
The corresponding values for `CCCCCCOc1c(OC)cc(C(=O)OCCCC[N+](C)(C)C)cc1OC.[I-]` are 164 and “Not Active”.
